# Source: US8058242B2, “Chimeric proteins with natriuretic activity” (The University of Queensland, priority 2004, dated 2011)
# How the values were obtained:
# [1] = molecular target: T1, Natriuretic Peptide Receptor-A (NPR-A) signaling in MDCK cells (Canis lupus familiaris, UniProt A0A8I3MHU3); format: cell-based, canine; conditions: stimulation of cGMP accumulation in MDCK cells
# T1 sequence (A0A8I3MHU3 32-1060): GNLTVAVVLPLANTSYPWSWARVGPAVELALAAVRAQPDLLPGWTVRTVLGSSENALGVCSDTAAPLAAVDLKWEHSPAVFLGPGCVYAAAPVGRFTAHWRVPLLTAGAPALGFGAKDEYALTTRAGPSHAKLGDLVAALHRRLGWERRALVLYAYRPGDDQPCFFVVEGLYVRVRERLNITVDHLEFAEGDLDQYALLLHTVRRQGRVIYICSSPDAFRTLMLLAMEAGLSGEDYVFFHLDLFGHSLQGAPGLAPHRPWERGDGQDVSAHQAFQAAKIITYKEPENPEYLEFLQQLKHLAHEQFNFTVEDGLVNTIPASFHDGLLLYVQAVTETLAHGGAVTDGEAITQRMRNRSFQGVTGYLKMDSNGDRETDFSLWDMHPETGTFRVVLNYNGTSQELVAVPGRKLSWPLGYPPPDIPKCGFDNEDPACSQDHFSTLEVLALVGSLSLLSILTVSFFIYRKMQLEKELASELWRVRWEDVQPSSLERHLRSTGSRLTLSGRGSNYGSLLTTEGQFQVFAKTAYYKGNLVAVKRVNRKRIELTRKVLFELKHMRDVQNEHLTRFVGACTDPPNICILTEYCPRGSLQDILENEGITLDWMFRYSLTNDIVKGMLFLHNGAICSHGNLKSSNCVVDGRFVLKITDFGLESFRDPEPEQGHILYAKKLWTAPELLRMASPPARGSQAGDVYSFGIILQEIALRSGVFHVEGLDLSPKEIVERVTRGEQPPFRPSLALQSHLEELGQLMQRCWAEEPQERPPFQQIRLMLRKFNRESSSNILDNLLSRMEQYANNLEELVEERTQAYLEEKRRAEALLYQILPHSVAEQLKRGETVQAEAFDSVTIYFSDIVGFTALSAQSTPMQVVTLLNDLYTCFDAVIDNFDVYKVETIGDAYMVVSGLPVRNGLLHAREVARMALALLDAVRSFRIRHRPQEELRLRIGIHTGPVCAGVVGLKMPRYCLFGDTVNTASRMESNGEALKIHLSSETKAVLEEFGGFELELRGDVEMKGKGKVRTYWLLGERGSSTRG
# [2] = system: endothelium-denuded aortic rings (GC-A mediated); assay: Aortic ring relaxation, endothelium-denuded rings pre-contracted with 40 mM KCl (Example 3); set-up: species or system rat; conditions: endothelium-denuded rat aortas pre-contracted with 40 mM KCl; peptide 0.1 μM
# Description: (§1) Male Sprague Dawley rats were killed and the descending thoracic aorta rapidly removed and flushed with physiological solution. After being cleared of adhering fat and connective tissue, 5 mm rings were mounted under 10 g resting tension, between two stainless steel hooks, in organ baths (37° C.) containing carbogenated (95% O2 and 5% CO2) physiological salt solution of the following composition (mM): NaCl, 118.4; NaHCO3, 25; glucose, 11; KCl, 4.7; MgSO4, 1.2; KH2PO4, 1.2 and CaCl2, 2.5. The lower hook was attached to a tissue holder and the upper hook to a force displacement transducer (Grass FTO3). Where indicated endothelial cells were removed by gentle rubbing of the intimal surface with a wire. To confirm the presence or absence of endothelial cells, tissues were precontracted with a sub-maximal concentration of phenylephrine (0.3 μM) and the response to acetylcholine (ACh, 10 μM) observed. Ach-induced relaxation greater than 80% of maximum indicated the presence of endothelium; whereas Ach-induced relaxation less than 10% indicated the absence of endothelium. Ring preparations under resting tension were conditioned by two contraction/relaxation cycles with 40 mM KCl, contracted by a third application of 40 mM KCl and then relaxed with different doses of the venom peptides. Responses were expressed as a percentage relaxation of the precontraction by KCl.
# [3] = system: endothelium-intact aortic rings (NPR-C mediated); assay: Aortic ring relaxation, endothelium-intact rings pre-contracted with 40 mM KCl (Example 3); set-up: species or system rat; conditions: endothelium-intact rat aortas pre-contracted with 40 mM KCl; peptide 0.1 μM
# Description: as §1
# conscious rabbits = assay: Blood pressure and heart rate in conscious rabbits, intravenous infusion dose-response (Example 8); set-up: Systolic BP, mean difference / Diastolic BP, mean difference / Mean BP, mean difference / HR, mean difference: dose or concentration left out as unconfirmed; conditions: for Diastolic BP, mean difference from control / HR, mean difference from control / Mean BP, mean difference from control / Systolic BP, mean difference from control: 45 min
# Plasmin = molecular target: T2, Plasmin (Homo sapiens, UniProt P00747); assay: Stability to enzymatic degradation by plasmin (Examples 7, 16); format: in vitro ADME; conditions: plasmin, 37° C.
# T2 construct: with 500 ng Endopeptidase (NEP) or 10 μg Plasmin
# In short: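 Peptide (100 μl of 500 μM) was incubated at 37 °C in 100 mM Tris/HCl, 150 mM NaCl, pH 7.2-7.4 with 500 ng NEP or 10 μg plasmin. Samples were taken from 5 min to 24 h and heat-quenched at 100 °C for 4 min. Remaining peptide was measured by RP-HPLC.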
# [4] = Table 9B, average of doses 1, 2, 4
# [5] = average of the 3 doses 1.0, 2.0, 4.0 μg/kg/min
# T2 sequence (P00747 97-580 partner limits assumed, species assumed): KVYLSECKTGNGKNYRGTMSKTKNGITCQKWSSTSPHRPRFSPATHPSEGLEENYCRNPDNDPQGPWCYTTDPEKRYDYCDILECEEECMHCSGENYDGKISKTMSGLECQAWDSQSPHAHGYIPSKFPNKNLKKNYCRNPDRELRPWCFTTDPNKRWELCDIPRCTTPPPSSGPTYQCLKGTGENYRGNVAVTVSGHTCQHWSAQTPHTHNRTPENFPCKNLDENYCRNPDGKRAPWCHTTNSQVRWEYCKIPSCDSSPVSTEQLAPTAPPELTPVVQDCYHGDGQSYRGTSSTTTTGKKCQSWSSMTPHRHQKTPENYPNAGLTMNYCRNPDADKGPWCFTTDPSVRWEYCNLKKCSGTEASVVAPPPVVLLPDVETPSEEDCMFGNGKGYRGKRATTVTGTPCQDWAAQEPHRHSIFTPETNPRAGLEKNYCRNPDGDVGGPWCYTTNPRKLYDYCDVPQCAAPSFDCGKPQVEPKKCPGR
# T2 sequence (P00747 581-810 limits assumed, species assumed): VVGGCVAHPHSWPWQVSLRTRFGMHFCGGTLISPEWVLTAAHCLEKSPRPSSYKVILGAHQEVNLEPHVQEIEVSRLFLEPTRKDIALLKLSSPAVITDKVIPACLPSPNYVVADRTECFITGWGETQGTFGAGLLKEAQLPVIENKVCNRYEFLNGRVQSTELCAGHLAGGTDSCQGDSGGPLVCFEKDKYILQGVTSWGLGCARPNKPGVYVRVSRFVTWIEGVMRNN
smiles,measurement,setting,value
"CC[C@H](C)[C@@H]1NC(=O)[C@H](CCCNC(=N)N)NC(=O)[C@H](CC(=O)O)NC(=O)[C@H](CCSC)NC(=O)[C@H](CCCNC(=N)N)NC(=O)CNC(=O)CNC(=O)[C@H](Cc2ccccc2)NC(=O)[C@@H](NC(=O)[C@H](CO)NC(=O)[C@H](CO)NC(=O)[C@H](CCCNC(=N)N)NC(=O)[C@H](CCCNC(=N)N)NC(=O)[C@H](CC(C)C)NC(=O)[C@@H](N)CO)CSSC[C@@H](C(=O)N[C@@H](CC(N)=O)C(=O)N[C@@H](CO)C(=O)N[C@@H](Cc2ccccc2)C(=O)N[C@@H](CCCNC(=N)N)C(=O)N[C@@H](Cc2ccc(O)cc2)C(=O)O)NC(=O)CNC(=O)[C@H](CC(C)C)NC(=O)CNC(=O)[C@H](CO)NC(=O)[C@H](CCC(N)=O)NC(=O)[C@H](C)NC(=O)CNC1=O [hANP, reference compound]",−Log10 EC50 (pEC50) ± Standard Error,[1],8.792 ± 0.2718
same,EC50,[1]; read-out: EC50 (M) ± Standard Error,1.64e-08 M
same,percentage relaxation of the precontraction by KCl,[2],~100%
same,percentage relaxation of the precontraction by KCl,[3],~100%
same,"Diastolic BP, mean difference","conscious rabbits; Table 9B, Dose 1",−9.7 mmHg
same,"HR, mean difference","conscious rabbits; Table 9B, Dose 1",17 bpm
same,"Mean BP, mean difference","conscious rabbits; Table 9B, Dose 1",−13.1 mmHg
same,"Systolic BP, mean difference","conscious rabbits; Table 9B, Dose 1",−10.6 mmHg
same,"Diastolic BP, mean difference","conscious rabbits; Table 9B, Dose 2",−12.3 mmHg
same,"HR, mean difference","conscious rabbits; Table 9B, Dose 2",19 bpm
same,"Mean BP, mean difference","conscious rabbits; Table 9B, Dose 2",−15.7 mmHg
same,"Systolic BP, mean difference","conscious rabbits; Table 9B, Dose 2",−13.0 mmHg
same,"Diastolic BP, mean difference","conscious rabbits; Table 9B, Dose 4",−14.4 mmHg
same,"HR, mean difference","conscious rabbits; Table 9B, Dose 4",9 bpm
same,"Mean BP, mean difference","conscious rabbits; Table 9B, Dose 4",−18.5 mmHg
same,"Systolic BP, mean difference","conscious rabbits; Table 9B, Dose 4",−14.5 mmHg
same,"Diastolic BP, Average Response SED",conscious rabbits; [4],−12.1 ± 0.8 mmHg
same,"HR, Average Response SED",conscious rabbits; [4],15 ± 3 bpm
same,"Systolic BP, Average Response SED",conscious rabbits; [4],−12.7 ± 0.9 mmHg
same,Recovery (MAP),"conscious rabbits; after 1 hour recovery period, Table 10A",59.2 mm Hg
same,Recovery Delta SED (MAP),"conscious rabbits; after 1 hour recovery period, Table 10A, listed as WT-hANP",5.0±1.2 mm Hg
same,"Diastolic BP, Average Response SED",conscious rabbits; [5],−12.1 ± 0.8 mmHg
same,"HR, Average Response SED",conscious rabbits; [5],15.1 ± 3.2 bpm
same,"Systolic BP, Average Response SED",conscious rabbits; [5],−12.7 ± 0.9 mmHg
same,MAP at final dose,"conscious rabbits; highest dose, Table 10A",54.2 mm Hg
same,"Treatment Effect, change of mean blood pressure during the infusion","conscious rabbits; highest dose, Table 10A, groups 1, 2A and 3",−18.5 mm Hg
same,"Diastolic BP, mean difference from control",conscious rabbits; i.v. infusion 1.0 μg/kg/min,−9.7 mmHg
same,"HR, mean difference from control",conscious rabbits; i.v. infusion 1.0 μg/kg/min,17.1 bpm
same,"Mean BP, mean difference from control",conscious rabbits; i.v. infusion 1.0 μg/kg/min,−13.1 mmHg
same,"Systolic BP, mean difference from control",conscious rabbits; i.v. infusion 1.0 μg/kg/min,−10.6 mmHg
same,"Diastolic BP, mean difference from control",conscious rabbits; i.v. infusion 2.0 μg/kg/min,−12.3 mmHg
same,"HR, mean difference from control",conscious rabbits; i.v. infusion 2.0 μg/kg/min,19.0 bpm
same,"Mean BP, mean difference from control",conscious rabbits; i.v. infusion 2.0 μg/kg/min,−15.7 mmHg
same,"Systolic BP, mean difference from control",conscious rabbits; i.v. infusion 2.0 μg/kg/min,−13.0 mmHg
same,"Diastolic BP, mean difference from control",conscious rabbits; i.v. infusion 4.0 μg/kg/min,−14.4 mmHg
same,"HR, mean difference from control",conscious rabbits; i.v. infusion 4.0 μg/kg/min,9.0 bpm
same,"Mean BP, mean difference from control",conscious rabbits; i.v. infusion 4.0 μg/kg/min,−18.5 mmHg
same,"Systolic BP, mean difference from control",conscious rabbits; i.v. infusion 4.0 μg/kg/min,−14.5 mmHg
same,half-life at 125 μM,"Plasmin; plasmin in Tris/HCl-NaCl buffer, read-out: HalfLife in plasmin",2.03 min
same,"K (one phase exponential decay, best fit values)",Plasmin,0.3413
same,"PLATEAU (one phase exponential decay, best fit values)",Plasmin,0.04207
same,"SPAN (one phase exponential decay, best fit values)",Plasmin,0.9579
